pIC50: −log10 of the molar value.
Legend:
[1] = system: ConA 1° splenocytes; test: Survival of ConA 1° splenocytes (cytotoxicity by MTS staining); assay type: cell-based, mouse; conditions: ConA-stimulated splenocytes
[2] = system: IL-12 on macrophages; test: Inhibition of IL-12 release from stimulated macrophages; assay type: cell-based, mouse; conditions: LPS and IFN-γ stimulated primary macrophages, ELISA
Procedure: Peritoneal exudate macrophages were isolated by peritoneal lavage with ice-cold sterile physiological saline 24 hours after intraperitoneal injection of BALB/c mice with 0.5 mL of sterile Zymosan A (1 mg/0.5 mL 0.9% saline). […] Murine primary macrophage are activated following incubation with LPS in the presence of sub-optimal doses of IFN-γ. Upon activation, macrophages participate actively in the onset of inflammation by releasing bioactive molecules that amplify the initial inflammatory response. […] Briefly, IL-12 levels in the supernatants from stimulated macrophages were determined with PharMingen's OptEIA™ ELISA set developed using an anti-mouse IL-12 antibody pair and mouse rIL-12 standard (PharMingen). Maxisorp™ F16 multiwell strips (Nunc, Roskilde, Denmark) were coated with anti-mouse IL-12 capture Ab (at recommended concentration) in 0.1 M NaHCO3, pH 9.5, 100 μL/well, overnight at 4° C. […] Plates were washed 3× with PBST and duplicate samples (100 μL/well) or standards (100 μL/well) in diluent buffer were incubated for 2 h. Plates were washed five times with PBST and incubated with biotinylated anti-mouse IL-12 and avidin-horseradish peroxidase (HRP) conjugate (at concentrations recommended by the manufacturer) for 1 h. […] Peritoneal exudate macrophages were isolated by peritoneal lavage with ice-cold sterile physiological saline 24 hours after intraperitoneal injection of BALB/c mice with 0.3 ml of sterile zymosan A (1 mg/0.5 mL 0.9% saline). […] All treatments were replicated six times. Cells were incubated for an additional 24 hours, and cell free culture supernatants from each well were collected for NO and cytokine determination. The remaining cells were stained with crystal violet to determine effect of the compound on cell survival.

pIC50 [2] | SMILES | pIC50 [1]
< 4.60 | COc1cc2sc(-c3c(NCCN(C)C)n[nH]c3N)nc2cc1F [N^3-(2-Dimethylaminoethyl)-4-(5-fluoro-6-methoxybenzothiazole)-1H-pyrazole-3,5-diamine] | < 4.60
4.63 | COc1cc2sc(-c3c(N4CCNCC4)n[nH]c3N)nc2cc1F [4-(5-Fluoro-6-methoxybenzothiazole)-5-piperizin-1-yl-2H-pyrazol-3-ylamine] | 4.76

— patent US8754233B2, “Pyrazolylbenzothiazole derivatives and their use as therapeutic agents” (Dermira (Canada), Inc., priority 2002, dated 2014)
